Measured values published in US6423519B1, “Compositions and methods for inhibiting fungal growth” (GPC Biotech Inc., priority 1998, dated 2002).
Like-named read-outs stand apart in the source and are kept apart here.

What was measured:
[1] = target: T1, C. albicans GGPTase (Candida albicans, UniProt Q8J224+Q9Y764); test: biochemical; details: read-out: IC50 (nM) Ca GG
T1 sequence (Q9Y764 1-398): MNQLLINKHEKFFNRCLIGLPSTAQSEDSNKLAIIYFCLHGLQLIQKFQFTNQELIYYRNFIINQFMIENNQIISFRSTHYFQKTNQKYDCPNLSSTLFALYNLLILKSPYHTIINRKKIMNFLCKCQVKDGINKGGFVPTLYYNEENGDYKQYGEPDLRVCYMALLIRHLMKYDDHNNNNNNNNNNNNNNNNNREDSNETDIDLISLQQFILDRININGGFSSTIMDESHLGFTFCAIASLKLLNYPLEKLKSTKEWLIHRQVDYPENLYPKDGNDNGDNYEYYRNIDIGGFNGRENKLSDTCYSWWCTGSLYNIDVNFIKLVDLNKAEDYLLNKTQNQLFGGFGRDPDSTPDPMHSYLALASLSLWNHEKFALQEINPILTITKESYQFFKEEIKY
T1 sequence (Q8J224 1-306): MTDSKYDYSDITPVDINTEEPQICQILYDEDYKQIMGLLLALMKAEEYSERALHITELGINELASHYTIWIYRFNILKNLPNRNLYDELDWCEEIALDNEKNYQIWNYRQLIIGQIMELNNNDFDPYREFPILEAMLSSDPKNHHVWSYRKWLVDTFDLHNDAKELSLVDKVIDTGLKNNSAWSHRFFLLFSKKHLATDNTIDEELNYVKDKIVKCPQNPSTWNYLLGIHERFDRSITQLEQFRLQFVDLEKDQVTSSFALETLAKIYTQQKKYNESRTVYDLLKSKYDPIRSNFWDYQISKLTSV
Experimental: Plate test compounds (10 μL per well) at predetermined concentration in 50% DMSO. For background control (blank) and reaction control (negative), add 10 μL of 200 μM GGPP and 10 μL 50% DMSO, respectively. Prepare assay buffer: 50 mM Tris, pH7.5, 20 mM KCL, 5 mM MgCl2, 5 μM ZnCl2, 0.5 mM Zw(3-14), 2 mM DTT and 0.1 mg/mL BSA.
Add 20 μL of C. albicans GGPTase and ^3H-GGPP in assay buffer to test compound. Preincubate enzyme and ^3H-GGPP with test compound for 15 minutes at room temperature. Add 20 μL C. albicans Rho in assay buffer. Incubate for 30 minutes at room temperature. Final assay conditions are 2 nM C. albicans GGPTase, 250 nM ^3H-GGPP and 250 nM C. albicans Rho.
Add 100 μL 15 mM GGPP, 50 mM Tris, pH7.0 and 2% BSA to quench reaction. Transfer reaction to Nickel chelate FlashPlate. Allow his-tagged C. albcians Rho to capture onto plate. Rinse plate 1× with 200 μL 20 mM Tris, pH7.0. Read in TOPCOUNT.

[2] = target: human GGTase (Homo sapiens, UniProt P53609); test: Human GGTase inhibition (Hu GG); format: biochemical; details: read-out: IC50 (nM) Hu GG
Source text: As described below, a variety of different compounds were synthesized and tested for inhibitory activity against human and Candida GGTase. Exemplary synthesis schemes for generating prenyltransferase inhibitors useful in the methods and compositions of the present invention are shown in FIGS. 1-56. Tables 1-5 provide Structure-Activity relationship (SAR) data for several different classes of prenyltransferase inhibitors.

[3] = target: Hu FT (Homo sapiens, UniProt P49356); test: Human FT inhibition (Hu FT); format: biochemical; details: Table 3 Piperidine Analogs
[4] = tested on: Asp GG; test: Asp GG inhibition; format: biochemical
[5] = tested on: Cryp GG; test: Cryp GG inhibition; format: biochemical
[6] = tested on: C. albicans; test: In vitro susceptibility testing of compounds in C. albicans (MIC); format: cell-based; details: for MIC: Candida albicans, read-out: MIC (μg/mL) C alb; for MIC (μg/mL) C alb: Table 1
Experimental: 1: Innoculate strain C. albicans strain such as SC5314 into 20 mL of the appropriate medium and incubate at 35° C. with shaking (220 rpm) overnight
2: Count the C. albicans cells in a 1:10 dilution of the overnight culture using a haemocytometer.
3: Work out the dilution factor required to bring the cell number to 1×10^3 cells/100 μL (equivalent to 1×10^4 cells/mL) then add the required volume of the overnight culture to 25 mL media in a falcon tube.
4: Vortex the diluted cells and immediately pipette 100 μL of the cell suspension to each of the required rows of a 96 well plate using the multipipettor.
5: Prepare each of the 100×stock solutions for the compounds to be tested in DMSO in the required concentration range in Eppendorf tubes.
6: The dilution series for each of the compounds may now be prepared in sequence:
For each compound—start with highest dilution. Add 10 μL compound in DMSO to the 490 μL of appropriate media. Immediately vortex and add 100 μL to the appropraite row of cells on the 96-well plate. Repeat this process for the next and subsequent concentrations of this compound before starting on the dilution series for additional compounds.
7: When complete cover the 96-well plate with an acetate sheet and incubate at 35° C. Inspect visually and record results for both plates at the 24 hr and 48 hr. The MIC corresponds to the concentration of compound where no visible growth is observed.

[7] = tested on: H460 Cell Line; test: Cytotoxicity of GGPTase inhibitors in human cells, H460 (Sulforhodamine B); format: cell-based; details: NCI-H460, 72 h, read-out: IC50 (nM) H460
Experimental: (§1) (A) Plate out cells at predetermined concentration in a volume of 150 μl.
(§2) (B) Allow cells to adhere to plate for twenty four hours
(§3) (C) Add compounds to cells at predetermined concentration (62.5 μg/mL down four-fold, 8 dilutions) n=2
(§4) (D) Cells are exposed to drug for 7 days for the IMR90 Cell Line, and a period of 3 days for the H460 Cell Line.
(E) 1. H460 Cells are fixed in TCA, rinsed, stained with Sulforhodamine B stain, and the stain is solubilized for a final OD read.

[8] = tested on: IMR90 Cell Line; test: Cytotoxicity of GGPTase inhibitors in human cells, IMR90 (MTT); format: cell-based; details: IMR-90, 168 h, read-out: IC50 (nM) IMR90
Experimental: as §1, §2, §3, §4
2. IMR90 Cells have 3-{4,5-Dimethylthiazol-2-yl}-2,5-diphenyltetrazolium bromide (MTT) added to them for three hours prior to final read out. After the three hours, media and MTT are removed and MTT crystals are solubilized in 100% DMSO for final OD read.

SMILES	IC50 ([1]; Table 3 Piperidine Analogs) [nM]	IC50 ([2]; Table 3 Piperidine Analogs) [nM]	IC50 [3] [nM]	other results
N[C@@H](CS)C(=O)N1CCC(C(=O)NCc2cccc(-c3ccccc3)c2)(c2ccccc2)CC1 [Compound 53e]	< 100	> 1000	> 1000	
N[C@@H](CS)C(=O)N1CCC(C(=O)NCCCN2CCOCC2)(c2ccccc2)CC1 [Compound 53f]	< 500	> 1000	> 1000	IC50 ([4]; Table 3 Piperidine Analogs): > 1000 nM; IC50 ([5]; Table 3 Piperidine Analogs): > 1000 nM
N[C@@H](CS)C(=O)N1CCC(C(=O)NCCN2CCCC2)(c2ccccc2)CC1 [Compound 53g]	< 100	> 1000	> 1000	
N[C@@H](CS)C(=O)N1CCC(C(=O)NCc2nc3ccccc3[nH]2)(c2ccccc2)CC1 [Compound 53h]	< 100	> 1000	> 1000	
CC(C)C[C@H](NC(=O)C1(c2ccccc2)CCN(C(=O)[C@@H](N)CS)CC1)C(N)=O [Compound 53i]	< 100	< 100	> 1000	
N[C@@H](CS)C(=O)N1CCC(C(=O)NCCCn2ccnc2)(c2ccccc2)CC1 [Compound 53j]	< 100	> 1000	> 1000	
N[C@@H](CS)C(=O)N1CCC(C(=O)NCc2ccncc2)(c2ccccc2)CC1 [Compound 53k]	< 10	> 1000	> 1000	IC50 ([4]; Table 3 Piperidine Analogs): > 1000 nM; IC50 ([5]; Table 3 Piperidine Analogs): > 1000 nM
N#CC1CCC(CNC(=O)C2(c3ccccc3)CCN(C(=O)[C@@H](N)CS)CC2)CC1 (stereo partly shown) [Compound 53n]	< 100	> 1000	> 1000	
N[C@@H](CS)C(=O)N1CCC(C(=O)NCC(=O)Nc2ccc3ccccc3c2)(c2ccccc2)CC1 [Compound 53o]	< 1000	> 1000		IC50 ([4]; Table 3 Piperidine Analogs): > 1000 nM; IC50 ([5]; Table 3 Piperidine Analogs): > 1000 nM
N[C@@H](CS)C(=O)N1CCC(C(=O)NCc2cccc(OC(F)(F)F)c2)(c2ccccc2)CC1 [Compound 53p]	< 100	< 1000	> 1000	
N[C@@H](CS)C(=O)N1CCC(C(=O)NCc2ccc3c(c2)OCO3)(c2ccccc2)CC1 [Compound 53q]	< 100	> 1000	> 1000	
N[C@@H](CS)C(=O)N1CCC(C(=O)NCc2ccc(F)cc2F)(c2ccccc2)CC1 [Compound 53r]	< 100	> 1000	> 1000	
COc1ccccc1CNC(=O)C1(c2ccccc2)CCN(C(=O)[C@@H](N)CS)CC1 [Compound 53u]	< 100	> 500	> 1000	
N[C@@H](CS)C(=O)N1CCC(C(=O)NCc2cccc3ccccc23)(c2ccccc2)CC1 [Compound 53w]	< 100	> 500	> 1000	
N[C@@H](CS)C(=O)N1CCC(C(=O)NC2c3ccccc3-c3ccccc32)(c2ccccc2)CC1 [Compound 53z]	< 100	> 1000	> 1000	IC50 ([4]; Table 3 Piperidine Analogs): > 1000 nM; IC50 ([5]; Table 3 Piperidine Analogs): > 1000 nM
NC[C@H](NC(=O)[C@@H](N)CS)C(=O)NCc1cccc2ccccc12 [Compound 89a]				IC50 ([1]; Table 1): < 1000 nM; IC50 ([1]; Table 1 Peptide Analogs): < 1000 nM; IC50 ([2]; Table 1): > 1000 nM; IC50 ([2]; Table 1 Peptide Analogs): > 1000 nM; IC50 ([5]; Table 1): > 1000 nM; IC50 ([5]; Table 1 Peptide Analogs): > 1000 nM; MIC [6]: > 200 µg/mL; MIC (μg/mL) C alb [6]: >200 µg/mL
NC[C@H](NC(=O)[C@@H](N)CS)C(=O)NCc1cccc(-c2ccccc2)c1 [Compound 89b]				IC50 ([1]; Table 1): < 500 nM; IC50 ([1]; Table 1 Peptide Analogs): < 500 nM; IC50 ([2]; Table 1): > 1000 nM; IC50 ([2]; Table 1 Peptide Analogs): > 1000 nM; MIC [6]: > 200 µg/mL; MIC (μg/mL) C alb [6]: >200 µg/mL
NC[C@H](NC(=O)[C@@H](N)CS)C(=O)N1CCC(C(=O)NCc2ccncc2)(c2ccccc2)CC1 [Compound 89c]				IC50 ([1]; Table 1): < 1000 nM; IC50 ([1]; Table 1 Peptide Analogs): < 1000 nM; IC50 ([2]; Table 1): > 1000 nM; IC50 ([2]; Table 1 Peptide Analogs): > 1000 nM; IC50 ([4]; Table 1): > 1000 nM; IC50 ([4]; Table 1 Peptide Analogs): > 1000 nM; IC50 ([5]; Table 1): > 1000 nM; IC50 ([5]; Table 1 Peptide Analogs): > 1000 nM
C[C@H](N)C(=O)N[C@@H](CS)C(=O)N1CCC(C(=O)NCc2ccncc2)(c2ccccc2)CC1 [Compound 96a]	> 1000	> 1000		IC50 [7]: > 1000 nM; IC50 [8]: > 1000 nM
C[C@H](N)C(=O)N[C@@H](C)C(=O)N[C@@H](CS)C(=O)N1CCC(C(=O)NCc2ccncc2)(c2ccccc2)CC1 [Compound 96b]	< 1000	> 1000		IC50 [7]: > 1000 nM; IC50 [8]: > 1000 nM
